This is an account of results in paper PMC1976386 (Molecular Microbiology, 2007).

Structures are written as SMILES.

In the assay the target is CaKip1p (Candida albicans, UniProt A0A1D8PT88). The conditions noted are these: read-out: Value.

As to `Nc1ncnc2c1ncn2[C@@H]1O[C@H](COP(=O)(O)OP(=O)(O)OP(=O)(O)O)[C@@H](O)[C@H]1O` [ATP], the Km was determined as 7.4 ± 0.7 µM.
